Measurements from PubChem BioAssay (NCI).
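Tested at 5 concentrations; 48 h exposure; 96-well plates; endpoints linearly interpolated, else capped at highest concentration. At the GI50, growth is halved. TGI: concentration producing complete growth inhibition.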

Tests used:
Experiment in all cases: NCI-60 cell line screen, 48 h
[1] = tested on: 786-0 renal
[2] = tested on: A498 renal
[3] = tested on: A549 NSCLC
[4] = tested on: ACHN renal
[5] = tested on: BT-549 breast
[6] = tested on: CAKI-1 renal
[7] = tested on: CCRF-CEM leukemia
[8] = tested on: COLO 205 colon
[9] = tested on: DU-145 prostate
[10] = tested on: EKVX NSCLC
[11] = tested on: HCC-2998 colon
[12] = tested on: HCT-116 colon
[13] = tested on: HCT-15 colon
[14] = tested on: HL-60(TB) leukemia
[15] = tested on: HOP-62 NSCLC
[16] = tested on: HOP-92 NSCLC
[17] = tested on: HS 578T breast
[18] = tested on: HT29 colon
[19] = tested on: IGROV1 ovarian
[20] = tested on: K-562 leukemia
[21] = tested on: KM12 colon
[22] = tested on: LOX IMVI melanoma
[23] = tested on: M14 melanoma
[24] = tested on: MALME-3M melanoma
[25] = tested on: MCF7 breast
[26] = tested on: MDA-MB-231 breast
[27] = tested on: MDA-MB-435
[28] = tested on: MOLT-4 leukemia
[29] = tested on: NCI-H226 lung
[30] = tested on: NCI-H23 lung
[31] = tested on: NCI-H460 lung
[32] = tested on: NCI-H522 lung
[33] = tested on: NCI/ADR-RES ovarian
[34] = tested on: OVCAR-3 ovarian
[35] = tested on: OVCAR-4 ovarian
[36] = tested on: OVCAR-5 ovarian
[37] = tested on: OVCAR-8 ovarian
[38] = tested on: PC-3 prostate
[39] = tested on: RPMI-8226 leukemia
[40] = tested on: RXF 393 renal
[41] = tested on: SF-268 CNS
[42] = tested on: SF-295 CNS
[43] = tested on: SF-539 CNS
[44] = tested on: SK-MEL-2 melanoma
[45] = tested on: SK-MEL-28 melanoma
[46] = tested on: SK-MEL-5 melanoma
[47] = tested on: SK-OV-3 ovarian
[48] = tested on: SN12C renal
[49] = tested on: SNB-19 CNS
[50] = tested on: SNB-75 CNS
[51] = tested on: SR leukemia
[52] = tested on: SW-620 colon
[53] = tested on: T-47D breast
[54] = tested on: TK-10 renal
[55] = tested on: U251 CNS
[56] = tested on: UACC-257 melanoma
[57] = tested on: UACC-62 melanoma
[58] = tested on: UO-31 renal

O=C(N/N=C\c1cc(Cl)ccc1O)c1ccncc1
GI50 [1]: 2.6 µM | TGI [1]: 32.2 µM | GI50 [2]: 15.2 µM | TGI [2]: > 100 µM | GI50 [3]: 12.9 µM | TGI [3]: > 100 µM | GI50 [4]: 1.91 µM | TGI [4]: > 100 µM | GI50 [5]: 9.18 µM | TGI [5]: > 100 µM | GI50 [6]: 1.65 µM | TGI [6]: > 100 µM | GI50 [7]: 2.15 µM | TGI [7]: > 100 µM | GI50 [8]: 4.21 µM | TGI [8]: > 100 µM | GI50 [9]: 4.63 µM | TGI [9]: > 100 µM | GI50 [10]: 27.3 µM | TGI [10]: > 100 µM | GI50 [11]: 3.03 µM | TGI [11]: > 100 µM | GI50 [12]: 1.63 µM | TGI [12]: > 100 µM | GI50 [13]: 0.576 µM | TGI [13]: > 100 µM | GI50 [14]: 3.02 µM | TGI [14]: > 100 µM | GI50 [15]: 2.97 µM | TGI [15]: > 100 µM | GI50 [16]: 3.47 µM | TGI [16]: 61.3 µM | GI50 [17]: 26 µM | TGI [17]: > 100 µM | GI50 [18]: 5.9 µM | TGI [18]: > 100 µM | GI50 [19]: 6.16 µM | TGI [19]: > 100 µM | GI50 [20]: 4.55 µM | TGI [20]: > 100 µM | GI50 [21]: 4.61 µM | TGI [21]: > 100 µM | GI50 [22]: 1.56 µM | TGI [22]: > 100 µM | GI50 [23]: 3.05 µM | TGI [23]: 23.4 µM | GI50 [24]: 14.6 µM | TGI [24]: > 100 µM | GI50 [25]: 2.05 µM | TGI [25]: > 100 µM | GI50 [26]: 3.67 µM | TGI [26]: > 100 µM | GI50 [27]: 11.7 µM | TGI [27]: > 100 µM | GI50 [28]: 2.91 µM | TGI [28]: > 100 µM | GI50 [29]: 2.61 µM | TGI [29]: 59 µM | GI50 [30]: 4.01 µM | TGI [30]: > 100 µM | GI50 [31]: 1.46 µM | TGI [31]: > 100 µM | GI50 [32]: 2.69 µM | TGI [32]: 22.4 µM | GI50 [33]: 2.01 µM | TGI [33]: > 100 µM | GI50 [34]: 0.617 µM | TGI [34]: > 100 µM | GI50 [35]: 0.967 µM | TGI [35]: 73.5 µM | GI50 [36]: 25.5 µM | TGI [36]: > 100 µM | GI50 [37]: 3.39 µM | TGI [37]: > 100 µM | GI50 [38]: 3.69 µM | TGI [38]: > 100 µM | GI50 [39]: 8.85 µM | TGI [39]: > 100 µM | GI50 [40]: 2.43 µM | TGI [40]: > 100 µM | GI50 [41]: 2.69 µM | TGI [41]: > 100 µM | GI50 [42]: 5.29 µM | TGI [42]: > 100 µM | GI50 [43]: 3.97 µM | TGI [43]: > 100 µM | GI50 [44]: 19.5 µM | TGI [44]: > 100 µM | GI50 [45]: 3.05 µM | TGI [45]: > 100 µM | GI50 [46]: 1.96 µM | TGI [46]: 19 µM | GI50 [47]: 5.39 µM | TGI [47]: > 100 µM | GI50 [48]: 4 µM | TGI [48]: > 100 µM | GI50 [49]: 5.95 µM | TGI [49]: > 100 µM | GI50 [50]: 9.29 µM | TGI [50]: > 100 µM | GI50 [51]: 2.85 µM | TGI [51]: > 100 µM | GI50 [52]: 3.42 µM | TGI [52]: > 100 µM | GI50 [53]: 2.1 µM | TGI [53]: > 100 µM | GI50 [54]: 17.6 µM | TGI [54]: > 100 µM | GI50 [55]: 1.86 µM | TGI [55]: > 100 µM | GI50 [56]: 4.16 µM | TGI [56]: > 100 µM | GI50 [57]: 1.48 µM | TGI [57]: 13.7 µM | GI50 [58]: 2.18 µM | TGI [58]: > 100 µM

c1ccc2c(c1)Sc1ccccc1N2CC1CN2CCC1CC2 (centres undefined)
TGI [1]: 19.1 µM | TGI [2]: 24.7 µM | TGI [3]: 22.8 µM | TGI [4]: 22.2 µM | TGI [5]: 27.8 µM | TGI [6]: 21 µM | TGI [7]: 14.3 µM | TGI [8]: 3.12 µM | TGI [9]: 19.4 µM | TGI [10]: 24.3 µM | TGI [11]: 2.6 µM | TGI [12]: 12.8 µM | TGI [13]: 19.6 µM | TGI [14]: 20.3 µM | TGI [15]: 27 µM | TGI [16]: 25.2 µM | TGI [17]: 26 µM | TGI [18]: 11.2 µM | TGI [19]: 23.2 µM | TGI [20]: 4.72 µM | TGI [21]: 17.5 µM | TGI [22]: 11.5 µM | TGI [23]: 3.36 µM | TGI [24]: 3.91 µM | TGI [25]: 11.2 µM | TGI [26]: 15 µM | TGI [27]: 8.7 µM | TGI [28]: 16.5 µM | TGI [29]: 30.2 µM | TGI [30]: 26.1 µM | TGI [31]: 11.3 µM | TGI [32]: 16.5 µM | TGI [33]: 24.5 µM | TGI [34]: 11.9 µM | TGI [35]: 20.8 µM | TGI [36]: 24.5 µM | TGI [37]: 27.2 µM | TGI [38]: 17.2 µM | TGI [39]: 9.99 µM | TGI [40]: 10.2 µM | TGI [41]: 20.9 µM | TGI [42]: 29.1 µM | TGI [43]: 21.8 µM | TGI [44]: 9.52 µM | TGI [45]: 4.32 µM | TGI [46]: 7.63 µM | TGI [47]: 26 µM | TGI [48]: 23.7 µM | TGI [49]: 22.6 µM | TGI [50]: 9.56 µM | TGI [51]: 7.83 µM | TGI [52]: 13.5 µM | TGI [53]: 8.65 µM | TGI [54]: 19.3 µM | TGI [55]: 14.5 µM | TGI [56]: 3.48 µM | TGI [57]: 10.5 µM | TGI [58]: 19.4 µM
